Columns and labels:
Wistar rats [1] = test: Hepatic and renal reactive oxygen species (DCF formation); format: in vivo; settings: rats, p.o., 14 days at 10% of LD50 (CCl4, APAP: once daily, 3 days), mean ± SEM, n = 6; for Renal ROS: kidney; for Hepatic ROS: liver
Method: (§1) For toxicity tests, acclimatized rats were randomly allocated to 12 groups (n = 12 for the control and n = 6 for the rest groups). […] Meanwhile, the aforementioned vehicles (dose volume 2 mL/kg b.w.) were administered to 3 groups. […] Upon completion of the 14-day treatments and before sample collection, the bladders of animals were emptied by gentle pressure on the lower part of the abdomen to induce urination. The animals were then housed in individual metabolic cages to collect urine for a period of 6 h and then the volume was recorded. Afterward, blood samples were obtained and the serum was separated by centrifugation at 1,620 × g for 10 min at room temperature.
Reactive oxygen species (ROS) were measured by formation of 2′,7′-dichlorofluorescein (DCF). An aliquot of 10 μL (kidney) or 5 μL (liver) of the homogenates was added to 1,940 or 1,945 μL of TRIS:HEPES (18:1) and was incubated in the presence of 50 μL of 2′,7′-dichlorofluorescein diacetate for 1 h at 37 °C. In order to quench the reaction, the mixture was chilled using an ice bath. The fluorescence was measured using a Shimadzu fluorometer (Japan; λex = 488 nm; λem = 525 nm). The results were expressed as nM DCF formed per mg protein/h.[33]
(§2) The protein concentration in homogenates was measured by the Bradford method.[29]

Wistar rats [2] = test: Hepatic and renal lipid peroxidation (lipid-soluble fluorescence); format: in vivo; settings: rats, p.o., 14 days at 10% of LD50 (CCl4, APAP: once daily, 3 days), mean ± SEM, n = 6; for Renal Lipoperoxidation: kidney; for Hepatic Lipoperoxidation: liver
Method: as §1
Lipid peroxidation (LPO) was evaluated by the formation of lipid-soluble fluorescence, as previously described. Briefly, kidney and liver tissues were homogenized in 3 and 5 mL of phosphate buffer (0.2 M, pH = 7.4), respectively. A volume of 1 mL (kidney) or 0.8 mL (liver) of the homogenates was added to 7 mL of chloroform-methanol (2:1, v/v), and after 15 s of vortex mixing, the resulting mixture was cooled using an ice bath for 30 min to allow for phase separation. The fluorescence of the organic phase was measured using a Shimadzu fluorometer (Japan; λex = 370 nm; λem = 430 nm), whose sensitivity was adjusted to 140 fluorescence units by using 1 μg/mL of quinine sulfate in 50 mM H2SO4. The results were expressed as relative fluorescence units per milligram of protein.[33]
as §2

Wistar rats [3] = test: Subacute toxicity: serum alanine aminotransferase and alkaline phosphatase activity; format: in vivo; settings: serum; rats, p.o., 14 days at 10% of LD50 (CCl4, APAP: once daily, 3 days); mean ± SEM, n = 6
Method: as §1
The activities of serum alanine aminotransferase (ALT) and alkaline phosphatase (ALP) were measured with standard kits (RANDOX, Laboratories Ltd, UK).

Wistar rats [4] = test: Subacute toxicity: water and electrolyte balance (osmolality, sodium, potassium, urinary flow); format: in vivo; settings: for Filtered Load of Potassium / Filtered Load of Sodium / Fractional Excretion of Potassium / Fractional Excretion of Sodium / Serum Osmolality / Serum Potassium / Serum Sodium / U/S Osm ratio / Urinary Flow Rate / Urinary Potassium Excretion / Urinary Sodium Excretion: rats, p.o., 14 days at 10% of LD50 (CCl4, APAP: once daily, 3 days), mean ± SEM, n = 6
Method: (§3) For toxicity tests, acclimatized rats were randomly allocated to 12 groups (n = 12 for the control and n = 6 for the rest groups). […] Meanwhile, the aforementioned vehicles (dose volume 2 mL/kg b.w.) were administered to 3 groups. […] The animals were then housed in individual metabolic cages to collect urine for a period of 6 h and then the volume was recorded. Afterward, blood samples were obtained and the serum was separated by centrifugation at 1,620 × g for 10 min at room temperature.
Osmolality of serum and urine were assessed (in triplicate) by using a vapor pressure osmometer (Wescor 5500, Logan, United States). U/S ratio as well as osmolar (COsm) and free water clearances were calculated via conventional equations:where UOsm and SOsm are the osmolality values (mOsm/Kg) in urine and serum, respectively, and φ is the UFR (mL/min).
(§4) The levels of sodium and potassium were measured in urine and serum using a flame photometer (Corning 400, Medfield, United States). Calculation was made of the clearance, fractional excretion, and filtered load of sodium (FLS), filtered load of potassium (FLP), and filtered load of glucose (FLG) using the conventional equations:where CX is the clearance rate of X (mL/min), CCr is the creatinine clearance rate (mL/min), UX and SX are the […] concentrations of X, respectively, φ is the UFR (mL/min), FEX is the fractional excretion (%) of X, and FLX is the filtered load of X in μEq/min (Na^+ or K^+) or mg/min (glucose).

NIH mice = test: Acute oral toxicity, median lethal dose (LD50); format: in vivo; settings: for Category (GHS acute oral toxicity hazard category) / Hazard statement (GHS): based on oral LD50, according to GHS [39]; for Oral LD50: female NIH mice, single oral dose, 14 days observation
Method: All treatments were administrated orally (p.o.) according to the scheme mentioned below.
Acute toxicity tests were performed in order to measure the median lethal dose (LD50). After acclimatization, mice were randomly allocated to ten groups (n = 4), including the control group (e.g. water, Tween 80, or PO) and the experimental groups, each with a single dose of one of the IMPYs at 4 levels of dose (0.5, 1.0, 2.0, and 4.0 g/kg b.w.).
Animals were food deprived overnight prior to administration of the chemical compounds or vehicles, and food was returned 4 h after dosing. Animals had access to water ad libitum throughout the study.[27]^,[28]

Wistar rats [5] = test: Subacute toxicity: glomerular filtration rate (creatinine clearance) and serum creatinine; format: in vivo; settings: for Glomerular Filtration Rate / Serum Creatinine: rats, p.o., 14 days at 10% of LD50 (CCl4, APAP: once daily, 3 days), mean ± SEM, n = 6
Method: as §3
(§5) Serum and urinary creatinine were determined by the Jaffe method. With this value, evaluation was made of the fractional excretion of sodium (FES), fractional excretion of potassium (FEP), and fractional excretion of glucose.[30]^,[31] The GFR was calculated from clearance of endogenous creatinine using the conventional equation:where GFR (CCr) is the creatinine clearance rate (mL/min); UCr and SCr are the creatinine concentrations (mg/dL) in urine and serum, respectively; and φ is the urinary flow rate (UFR) (mL/min). To avoid the error from the tubular secretion of creatinine found in males, only female animals were used.

[6] = tested on: renal secretory pathway of organic anions; test: Active tubular secretion of organic acids (PAH uptake in kidney cortex slices); format: in vivo, rats; settings: for PAH t/m ratio: kidney cortex slices, PAH 1 mM, 1 h, 25 °C, rats, p.o., 14 days at 10% of LD50 (CCl4, APAP: once daily, 3 days), mean ± SEM, n = 6
Method: as §1
p-Aminohippuric acid (PAH) was used as an indicator of the renal secretory pathway of organic anions. Kidneys were extracted and immediately submerged in Ringer solution (pH = 7.4 and mOsm = 290 ± 10 mOsm/kg) under constant bubbling with O2/CO2 (95/5%). The kidneys were decapsulated and slices of the kidney cortex were obtained, which were then incubated in Ringer solution containing PAH (1 mM) for 1 h at 25 °C under constant bubbling with O2/CO2 (95/5%). The levels of PAH were quantified with the Bratton-Marshall method and results were expressed as the PAH tissue/medium ratio (PAH t/m ratio).[31]^,[32]

Wistar rats [7] = test: Subacute toxicity: serum and urine glucose, urinary protein excretion; format: in vivo; settings: for Filtered Load of Glucose / Fractional Excretion of Glucose / Serum Glucose / Urinary Glucose Excretion / Urinary Protein Excretion: rats, p.o., 14 days at 10% of LD50 (CCl4, APAP: once daily, 3 days), mean ± SEM, n = 6
Method: as §3
Serum and urine glucose concentration were calculated using GOD-PAP kits (RANDOX, Laboratories Ltd, UK). Urinary protein was quantified using the Bradford method.[29]
as §5, §4

[8] = in comparison to the control group

Row | Structure (SMILES) | Renal ROS (Wistar rats [1]) | Hepatic ROS (Wistar rats [1]) | Renal Lipoperoxidation (Wistar rats [2]) | Hepatic Lipoperoxidation (Wistar rats [2]) | Alanine Aminotransferase (Wistar rats [3]) | Alkaline Phosphatase (Wistar rats [3]) | Filtered Load of Potassium (Wistar rats [4]) | Filtered Load of Sodium (Wistar rats [4]) | Fractional Excretion of Potassium (Wistar rats [4]) | Fractional Excretion of Sodium (Wistar rats [4]) | Serum Osmolality (Wistar rats [4]) | Serum Potassium (Wistar rats [4]) | Serum Sodium (Wistar rats [4]) | U/S Osm ratio (Wistar rats [4]) | Urinary Flow Rate (Wistar rats [4]) | Urinary Potassium Excretion (Wistar rats [4]) | Urinary Sodium Excretion (Wistar rats [4]) | Category (GHS acute oral toxicity hazard category) (NIH mice) | Hazard statement (GHS) (NIH mice) | Oral LD50 (NIH mice) | other results
1 | CCOC(=O)c1nc2ccccn2c1[N+](=O)[O-] [Compound 1b, ethyl 3-nitroimidazo[1,2-a]pyridine-2-carboxylate] | 227.17 ± 21.01 nM de DCF/mg protein/h | 285.90 ± 37.33 nM de DCF/mg protein/h | 0.38 ± 0.07 URF/mg protein | 0.74 ± 0.07 URF/mg protein | 30.10 ± 2.99 U/L | 101.41 ± 16.30 U/L | 1.70 ± 0.21 µEq/min | 39.31 ± 4.28 µEq/min | 15.58 ± 3.10% | 0.85 ± 0.09% | 294.04 ± 0.88 mOsm/kg | 6.74 ± 0.39 mEq/L | 155.42 ± 3.63 mEq/L | 2.54 ± 0.20 | 4.54 ± 0.76 µL/min | 0.24 ± 0.03 µEq/min | 0.34 ± 0.05 µEq/min | 5 | May be harmful if swallowed | >4.000 g/kg b.w. | FLS (filtered load of sodium), change in words (Wistar rats [4]; in comparison with the control group): decreased; serum creatinine, change in words (Wistar rats [5]; compared with 1a and 3b): higher; GFR, change in words (Wistar rats [5]; [8]): lower; serum creatinine level, change in words (Wistar rats [5]; [8]): greater; Glomerular Filtration Rate (Wistar rats [5]): 0.25 ± 0.03 mL/min; Serum Creatinine (Wistar rats [5]): 1.38 ± 0.07 mg/dL; PAH t/m ratio [6]: 2.00 ± 0.13; FEG (fractional excretion of glucose), change in words (Wistar rats [7]; compared to control values): increased; FLG (filtered load of glucose), change in words (Wistar rats [7]; compared to control values): reduced; Filtered Load of Glucose (Wistar rats [7]): 0.31 ± 0.04 mg/min; Fractional Excretion of Glucose (Wistar rats [7]): 0.05 ± 3.9 E-3%; Serum Glucose (Wistar rats [7]): 121.27 ± 7.88 mg/dL; Urinary Glucose Excretion (Wistar rats [7]): 141.87 ± 18.46 ng/min; Urinary Protein Excretion (Wistar rats [7]): 0.57 ± 0.07 µg/min
2 | N#Cc1cn2ccccc2n1 [Compound 2a, imidazo[1,2-a]pyridine-2-carbonitrile] | 171.33 ± 22.04 nM de DCF/mg protein/h | 285.53 ± 42.87 nM de DCF/mg protein/h | 0.30 ± 0.02 URF/mg protein | 0.71 ± 0.04 URF/mg protein | 42.68 ± 2.04 U/L | 104.44 ± 19.76 U/L | 5.07 ± 1.44 µEq/min | 124.49 ± 40.90 µEq/min | 13.55 ± 1.23% | 0.55 ± 0.13% | 291.74 ± 1.34 mOsm/kg | 6.03 ± 0.31 mEq/L | 142.94 ± 3.88 mEq/L | 3.30 ± 0.22 | 6.44 ± 1.39 µL/min | 0.64 ± 0.16 µEq/min | 0.51 ± 0.09 µEq/min | 4 | Harmful if swallowed | 0.794 g/kg b.w. | Glomerular Filtration Rate (Wistar rats [5]): 0.86 ± 0.28 mL/min; Serum Creatinine (Wistar rats [5]): 0.66 ± 0.13 mg/dL; PAH t/m ratio [6]: 1.07 ± 0.11; PAH t/m ratio, change in words ([6]; versus control (2a also versus Tween 80 and 2b)): decreased; Filtered Load of Glucose (Wistar rats [7]): 0.90 ± 0.29 mg/min; Fractional Excretion of Glucose (Wistar rats [7]): 0.02 ± 3.9E-3%; Serum Glucose (Wistar rats [7]): 103.46 ± 3.16 mg/dL; Urinary Glucose Excretion (Wistar rats [7]): 136.89 ± 32.82 ng/min; Urinary Protein Excretion (Wistar rats [7]): 0.65 ± 0.13 µg/min
3 | CCOC(=O)c1cn2ccccc2n1 [Compound 1a, ethyl imidazo[1,2-a]pyridine-2-carboxylate] | 161.18 ± 27.84 nM de DCF/mg protein/h | 317.94 ± 25.65 nM de DCF/mg protein/h | 0.28 ± 0.03 URF/mg protein | 0.75 ± 0.04 URF/mg protein | 22.22 ± 1.69 U/L | 93.14 ± 11.91 U/L | 2.69 ± 1.19 µEq/min | 64.29 ± 26.43 µEq/min | 22.26 ± 6.39% | 0.74 ± 0.22% | 293.75 ± 1.88 mOsm/kg | 6.57 ± 0.32 mEq/L | 162.39 ± 5.03 mEq/L | 3.02 ± 0.25 | 4.17 ± 1.25 µL/min | 0.34 ± 0.06 µEq/min | 0.29 ± 0.08 µEq/min | 5 | May be harmful if swallowed | 3.175 g/kg b.w. | GFR, change in words (Wistar rats [5]; [8]): lower; Glomerular Filtration Rate (Wistar rats [5]): 0.34 ± 0.14 mL/min; Serum Creatinine (Wistar rats [5]): 0.80 ± 0.14 mg/dL; PAH t/m ratio [6]: 2.51 ± 0.13; FLG (filtered load of glucose), change in words (Wistar rats [7]; compared to control values): reduced; Filtered Load of Glucose (Wistar rats [7]): 0.39 ± 0.17 mg/min; Fractional Excretion of Glucose (Wistar rats [7]): 0.04 ± 0.01%; Serum Glucose (Wistar rats [7]): 112.39 ± 4.92 mg/dL; Urinary Glucose Excretion (Wistar rats [7]): 96.54 ± 29.03 ng/min; Urinary Protein Excretion (Wistar rats [7]): 0.56 ± 0.10 µg/min

— PMC9618103, “Exploratory toxicology studies of 2,3-substituted imidazo[1,2-a]pyridines with antiparasitic and anti-inflammatory properties” (Toxicology Research, 2022)
